Values of other authors in patent US7485705B2, “Water-soluble tetrazolium compounds” (Dojindo Laboratories, priority 2003, dated 2009).

SMILES	water solubility of the formazan formed upon receiving hydrogen
Cc1nc(-[n+]2nc(-c3ccccc3)nn2-c2ccccc2)sc1C.[Br-] [MTT, [3-(4,5-dimethylthiazol-2-yl)-2,5-diphenyltetrazolium bromide]]	insoluble in water
COc1cc(-c2ccc(-[n+]3nc(-c4ccccc4)nn3-c3ccc([N+](=O)[O-])cc3)c(OC)c2)ccc1-[n+]1nc(-c2ccccc2)nn1-c1ccc([N+](=O)[O-])cc1.[Cl-].[Cl-] [nitro-TB, 3,3′-[3,3′-dimethoxy-(1,1′-biphenyl)-4,4′-diyl]-bis-[2-(4-nitrophenyl)-5-2H tetrazolium chloride]]	insoluble in water
